According to PMC7377239, “Cardiovascular Effects of Polychlorinated Biphenyls and Their Major Metabolites” (Environmental Health Perspectives, 2020):
Structures can show the parent of a compound that is named as a salt. Where two headings read alike, the source gives them in different places.

Tested on: HUVECs
Assay: Tube formation (tubulogenesis) assay in HUVECs, 18 h
Type: cell-based, human
Conditions: Homo sapiens, HUVEC, 18 h, HUVECs; for activity at 0.1 µM: 0.10 µM; for minimal effective concentration: top concentration 100.00 µM
Experimental: Similar to the cultivation of iCell®-endothelial cells, HUVEC maintenance and experimentation are detailed elsewhere ([Iwata et al. 2017]). Briefly, HUVECs were thawed, seeded, and grown in T75 tissue culture flasks in Medium 199 with EGM™-2 BulletKits™. HUVECs were incubated at regular cell culture conditions, 37°C and 5% CO2 , and passaged every 2–3 d using TrypLE™ Express. To ensure adequate endothelial function, experiments were performed with cells between passages 1 and 5.
Tube formation assays were performed on Geltrex™ LDEV-free reduced growth factor basement membrane using both iCell®-endothelial cells and HUVECs in 384-well format exactly as detailed in Iwata et al. ([2017]). Negative controls included media-only and vehicle control (i.e., 0.5% vol/vol DMSO in cell culture media) wells. Positive assay controls were consistent with previously published reports ([Iwata et al. 2017]) and included TAB ( 50μM ) as a cytotoxic control, and nocodazole ( 0.01–1μM ), suramin ( 0.5–50μM ), histamine ( 0.1–100μM ), and chloroquine ( 1–500μM ) as chemicals associated with specific effects on ECs. Each test chemical was screened in triplicate for each concentration. Briefly, for iCell®-endothelial cells, starvation media consisted of VascuLife® basal medium with 4 mM L-glutamine LifeFactor and 0.1% iCell®-endothelial cells medium supplement. To counter dilution effects, a 2× concentration of the HUVEC maintenance medium supplemented with additional VEGF was created (EGM™-2 BulletKits™ at 2× concentration; also the VEGF component was replaced with 12.5 ng/mL VEGF). Geltrex™ LDEV-free reduced growth factor basement membrane was thawed overnight and dispensed into 384-well plates ( 10μL/well ) with tapping and rotating to evenly coat. The plates were incubated for 1 h in a cell culture incubator at 37°C and 5% CO2 . A 2× PCB plate (containing all of the PCBs and metabolites in dose–response) was prepared in basal media and added, 25μL per well, to the Geltrex™ coated plates. On separate plates, cells were seeded 7,500 (iPSC- ECs) or 3,500 (HUVEC) cells/well. Cells were exposed to chemicals overnight at 37°C and 5% CO2 and stained with 3× concentration of calcein AM ( 25μL /well, 6μmol/L ) for 15 min before imaging. Images were captured at 4× magnification with the FITC filter (calcein AM). Images were analyzed with the angiogenesis module software within MetaXpress™ (Molecular Devices).
Phenotypic responses were quantitatively assessed using concentration–response modeling as detailed elsewhere ([Sirenko et al. 2017]). Briefly, phenotypic readouts were normalized to vehicle controls and fit to a four-parameter logistic model in R studio software (version 3.1.1; R Development Core Team). Following EPA guidance on dose–response modeling, a cutoff of one standard deviation across means of vehicle control (i.e., 0.5% vol/vol DMSO in cell culture media) wells was applied to determine the point-of-departure (POD) values ([U.S. EPA 2012]). In the absence of a concentration–response, the highest tested concentration (i.e., 100μM ) was assigned as “no observable adverse effect level.” The concentration–response assessment R script, as well as templates for vehicle and concentration–response data, are available as a supplement to Sirenko et al. ([2017]). The ability of physicochemical properties to predict differences in PODs were evaluated by multiregression and mixed-effects modeling using R.

[1] = 0.00 µM = 100.00, read-out: huvec.mtl.18hr
[2] = 0.00 µM = 100.00, read-out: huvec.tlps.18hr
[3] = 0.00 µM = 100.00, read-out: huvec.tta.18hr
[4] = 0.00 µM = 100.00, read-out: huvec.ttl.18hr

| Structure (SMILES) | activity at 0.01 µM [1] | activity at 0.01 µM [2] | activity at 0.01 µM [3] | activity at 0.01 µM [4] | activity at 0.1 µM [1] | activity at 0.1 µM [2] | activity at 0.1 µM [3] | activity at 0.1 µM [4] | activity at 1 µM [1] | activity at 1 µM [2] | activity at 1 µM [3] | activity at 1 µM [4] | activity at 10 µM [1] | activity at 10 µM [2] | activity at 10 µM [3] | activity at 10 µM [4] | activity at 100 µM [1] | activity at 100 µM [2] | activity at 100 µM [3] | activity at 100 µM [4] | further results |
| --- | --- | --- | --- | --- | --- | --- | --- | --- | --- | --- | --- | --- | --- | --- | --- | --- | --- | --- | --- | --- | --- |
| COc1ccc(-c2ccc(Cl)cc2)cc1 [4'-OMe PCB3] | 112% | 133% | 123% | 113% | 111% | 139% | 131% | 125% | 103% | 128% | 116% | 111% | 81.4% | 122% | 75.2% | 75.8% | 58.6% | 37.2% | 51.7% | 48.9% | minimal effective concentration (read-out: huvec.mtl.18hr POD): 7.13 µM; minimal effective concentration (read-out: huvec.tlps.18hr POD): 49.5 µM; minimal effective concentration (read-out: huvec.tta.18hr POD): 8.82 µM; minimal effective concentration (read-out: huvec.ttl.18hr POD): 7.82 µM |
| O=S(=O)(O)Oc1ccc(-c2ccc(Cl)cc2)cc1 [4'-yl PCB 3 sulfate] | 107% | 166% | 116% | 109% | 106% | 138% | 140% | 133% | 117% | 173% | 125% | 123% | 93% | 102% | 93.4% | 88.6% | 57.3% | 38.9% | 53.2% | 59.7% | minimal effective concentration (read-out: huvec.mtl.18hr POD): 11.2 µM; minimal effective concentration (read-out: huvec.tlps.18hr POD): 100 µM; minimal effective concentration (read-out: huvec.tta.18hr POD): 25.4 µM; minimal effective concentration (read-out: huvec.ttl.18hr POD): 100 µM |
| Oc1ccc(-c2cccc(Cl)c2)cc1Cl [4-OH PCB11] | 113% | 135% | 121% | 115% | 115% | 127% | 133% | 125% | 112% | 149% | 110% | 107% | 77.3% | 94.8% | 89.2% | 81.5% | 62.9% | 61.6% | 84.3% | 85.2% | minimal effective concentration (read-out: huvec.mtl.18hr POD): 7.09 µM; minimal effective concentration (read-out: huvec.tlps.18hr POD): 35.3 µM; minimal effective concentration (read-out: huvec.tta.18hr POD): 100 µM; minimal effective concentration (read-out: huvec.ttl.18hr POD): 4.15 µM |
| Oc1cc(Cl)c(-c2cc(Cl)ccc2Cl)cc1Cl [4-OH PCB52] | 112% | 103% | 129% | 112% | 98.5% | 96.7% | 107% | 98.2% | 94% | 92.4% | 123% | 110% | 91.1% | 77.1% | 98.5% | 87.2% | 69.6% | 35.6% | 168% | 163% | minimal effective concentration (read-out: huvec.mtl.18hr POD): 8.34 µM; minimal effective concentration (read-out: huvec.tlps.18hr POD): 4.13 µM; minimal effective concentration (read-out: huvec.tta.18hr POD): 51.8 µM; minimal effective concentration (read-out: huvec.ttl.18hr POD): 62.1 µM |
| COc1ccc(-c2cccc(Cl)c2)cc1Cl [4-OMe PCB11] | 124% | 137% | 110% | 93.8% | 107% | 117% | 99.7% | 89.8% | 102% | 99.7% | 108% | 99.4% | 89.2% | 97.9% | 78.8% | 67.3% | 71% | 60.6% | 70.4% | 60.2% | minimal effective concentration (read-out: huvec.mtl.18hr POD): 9.33 µM; minimal effective concentration (read-out: huvec.tlps.18hr POD): 25.8 µM; minimal effective concentration (read-out: huvec.tta.18hr POD): 100 µM; minimal effective concentration (read-out: huvec.ttl.18hr POD): 1.22 µM |
